Values quoted from earlier work in patent publication US20070110909A1, “Reduction or elimination of microbial growth and biofouling of salted wet biomass byproducts” (priority 2005, published 2007).

What was measured:
rats, mice and hamsters = settings: fore-stomachs of rats
animal tests = settings: birth defects in rats

Row | Compound | tumors in animals (rats, mice and hamsters) | toxic effects in animal tests (animal tests)
1 | COc1ccc(O)c(C(C)(C)C)c1 [BHA, Butylated hydroxyanisole] | caused cancerous tumors | –
2 | Cc1cc(C(C)(C)C)c(O)c(C(C)(C)C)c1 [BHT, Butylated hydroxytoluene] | – | caused liver cancer and lung tumors, increased blood cholesterol, reduced growth rates and body weight
